Assay results published in ChEMBL document CHEMBL3217542, “Chiral diaminocyclohexane coupling polyphenols: A new class of anticancer agents” (Medchemcomm, 2012).
Activity calls are given as the source filed them. The calls are words filed in the database; no cut-off is given here.

Tests used:
MCF7 [1] = assay: Selectivity index, ratio of IC50 for human fibroblasts to IC50 for human MCF7 cells
MDA-MB-231 = assay: Cytotoxicity against human MDA-MB-231 cells after 2 days by SRB assay; type: functional, cell-based; details: MDA-MB-231, 48 h
MCF7 [2] = assay: Cytotoxicity against human MCF7 cells after 2 days by SRB assay; type: functional, cell-based; details: MCF7, 48 h
MDA-MB-468 = assay: Cytotoxicity against human MDA-MB-468 cells after 2 days by SRB assay; type: functional, cell-based; details: MDA-MB-468, 48 h
NCI-H460 = assay: Cytotoxicity against human NCI-H460 cells after 2 days by SRB assay; type: functional, cell-based; details: NCI-H460, 48 h
MDA-MB-453 [3] = assay: Cytotoxicity against human MDA-MB-453 cells after 2 days by SRB assay; type: functional, cell-based; details: MDA-MB-453, 48 h
[4] = Cytotoxicity against human HBT-174 cells after 2 days by SRB assay; type: functional, cell-based; details: HBT-174, 48 h
[5] = Cytotoxicity against human fibroblasts after 2 days by SRB assay; type: cell-based; details: Fibroblast, 48 h
[6] = Selectivity index, ratio of IC50 for human fibroblasts to IC50 for human HBT-174 cells
MCF7 [7] = assay: Reduction of Bcl-2 gene expression in human MCF7 cells at 5 uM after 24 hrs by RT-PCR analysis relative to control; type: functional; design: scale not given: the % may be the effect or the level left
MCF7 [8] = assay: Reduction of p53 gene expression in human MCF7 cells at 5 uM after 24 hrs by RT-PCR analysis relative to control; type: functional; design: scale not given: the % may be the effect or the level left
HBT-174 = assay: Inhibition of colony formation in human HBT-174 cells assessed as decrease in colony size and number of colony at 0.5 to 5 uM treated every 3 days for 10 days by SRB staining; type: functional, cell-based
MCF7 [9] = assay: Reduction of cyclin-D1 gene expression in human MCF7 cells at 5 uM after 24 hrs by RT-PCR analysis relative to control; type: functional; design: scale not given: the % may be the effect or the level left
MDA-MB-453 [10] = assay: Antimammosphere formation activity in human MDA-MB-453 cells assessed as ALDH positive cells at 10 uM after 4 days relative to control; type: functional
MDA-MB-453 [11] = assay: Antimammosphere formation activity in human MDA-MB-453 cells assessed as ALDH positive cells at 5 uM after 4 days relative to control; type: functional
MCF7 [12] = assay: Reduction of Bcl-xL gene expression in human MCF7 cells at 5 uM after 24 hrs by RT-PCR analysis relative to control; type: functional; design: scale not given: the % may be the effect or the level left
MDA-MB-453 [13] = assay: Antimammosphere formation activity in human MDA-MB-453 cells assessed as ALDH positive cells at 1 uM after 4 days relative to control; type: functional

Structure (SMILES) | Ratio IC50 (MCF7 [1]) | IC50 (MDA-MB-231) [µM] | IC50 (MCF7 [2]) [µM] | IC50 (MDA-MB-468) [µM] | IC50 (NCI-H460) [µM] | IC50 (MDA-MB-453 [3]) [µM] | IC50 [4] [µM] | IC50 [5] [µM] | Ratio IC50 [6] | Activity (MCF7 [7]) [%] | Activity (MCF7 [8]) [%] | inhibition (HBT-174) | Activity (MCF7 [9]) [%] | Activity (MDA-MB-453 [10]) [%] | Activity (MDA-MB-453 [11]) [%] | Activity (MCF7 [12]) [%] | Activity (MDA-MB-453 [13]) [%]
Oc1ccc(CN[C@@H]2CCCC[C@H]2NCc2ccc(O)cc2O)c(O)c1 | 13.7 | 4 | 6 | 4.4 | 2.2 | 4.5 | 8.2 | 82 | 10 |  |  |  |  |  |  |  | 
Cc1ccc(O)c(CN[C@@H]2CCCC[C@H]2NCc2cc(C)ccc2O)c1 | 10.3 |  | 3.6 |  |  |  |  | 37 |  |  |  |  |  |  |  |  | 
O=C(O)c1ccc(O)c(CN[C@@H]2CCCC[C@H]2NCc2cc(C(=O)O)ccc2O)c1 | 12.8 |  | 8.4 |  |  |  |  | 108 |  |  |  |  |  |  |  |  | 
Oc1ccc(CN[C@@H]2CCCC[C@H]2NCc2ccc(O)c(O)c2)cc1O | 12.8 | 1.4 | 2.5 | 1.2 | 0.9 | 1.8 | 3.3 | 32 | 9.7 |  |  |  |  |  |  |  | 
Oc1ccc(O)c(CN[C@@H]2CCCC[C@H]2NCc2cc(O)ccc2O)c1 | 14.4 | 3.8 | 5.2 | 5.9 | 2.4 | 5.2 | 8 | 75 | 9.4 |  |  |  |  |  |  |  | 
Oc1cccc(CN[C@@H]2CCCC[C@H]2NCc2cccc(O)c2O)c1O | 22.1 | 2.4 | 4.8 | 3.3 | 1.8 | 4.6 | 6.8 | 106 | 15.6 | 15.6 | 33.1 | Active | 24.8 | <5 | 25 | 22.2 | 90
